For the assay, the system named is vascular smooth muscle cells. Briefly: Uptake amount of chelate compound by vascular smooth muscle cells (mixed culture with macrophages). Type of assay: cell-based. Conditions: liposome preparation PC: 50 nmol+PS: 50 nmol+Compound 1: 75 nmol; mixed culture system of vascular smooth muscle cells and macrophage; 37° C., 5% CO2, 24 hours. The procedure: Uptake Amount of Chelate Compound by Vascular Smooth Muscle Cells
Dipalmitoyl-PC (Funakoshi, No. 1201-41-0225) and dipalmitoyl-PS (Funakoshi, No. 1201-42-0237) at the ratio shown below were dissolved in chloroform together with a hydrophobic chelate compound (Compound 1 specifically shown above as a preferred compound) in an eggplant-shaped flask according to the method described in J. Med. Chem., 25 (12), 1500 (1982) to form a uniform solution. Then, the solvent was evaporated under reduced pressure to form a thin membrane on the bottom of the flask bottom. This thin membrane was dried in vacuum, then added with an appropriate amount of 0.9% physiological saline (Hikari Pharmaceutical, No. 512) and subjected to ultrasonication (No. 3542 probe type oscillator, Branson, 0.1 mW) for 5 minutes to obtain a uniform liposome dispersion. The diameters of the liposomes in the resulting dispersion were measured by using WBC analyzer (A-1042, Nihon Kohden). […] The liposome preparation mentioned below, which was produced by the above method, was added to a mixed culture system of vascular smooth muscle cells and macrophage described in International Publication WO 01/82977. The cells were cultured at 37° C. under 5% CO2 for 24 hours, and the amount of the chelate compound taken up into the vascular smooth muscle cells was quantified.
PC: 50 nmol+PS: 50 nmol+Compound 1: 75 nmol […]

With `CC(C)CCCC(C)C1CCC2C3C=CC4CC(OC(=O)COC(=O)CN(CCN(CC(=O)O)CC(=O)O)CCN(CC(=O)O)CC(=O)O)CCC4(C)C3CCC12C` (stereo not shown) [Compound 1], the “Amount taken up by vascular smooth muscle cells” value is recorded as 20 nmol/mg protein.

For the origin of these results see patent US20070189973A1, “Contrast medium comprising liposomes containing hydrophobic chelate compound” (priority 2003, published 2007).
